The record followed here is patent US5623080A, “Fluorone and pyronin Y derivatives” (Spectra Group Limited, Inc., priority 1995, dated 1997).

SMILES strings stand for the structures.

Data set [1] is described as follows: absorption wavelength (λmax) and extinction (ε). Format: physicochemical. The following applies: EtOH, Table 1.
A short description of a further data set: depth of cure. The source says: One of the advantages of the fluorone dye photoinitiators in this invention is the depth of the cure that is obtainable. This is in contrast to UV photoinitators that causes a "screening" effect which prevents the UV light from penetrating beyond a certain […] depth, usually several millimeters. By contrast, the fluorone dye bleaches as it photoinitiates and is concommitantly converted into a non-visible absorbing species thus allowing more visible light to penetrate which continues the cure. This cascading bleaching effect permits substantial depth of cure which can easily reach several inches.
An acrylate monomer mixture was composed of 15 parts urethane diacrylate, 20 parts TPGPA, 40 parts TMPTA and 15 parts DPHPA, and a 20 to 1 weight ratio of NPG coinitiator to DIEF or DIBF fluorone dye. For dye concentrations of 0.01, 0.05 and 0.1 weight, all the formulations cured to a depth of 3 cm in 30 seconds when exposed to a 350 watt tungsten halogen light which provides about 500 mw/cm^2 irradiance. When the irradiance was increased to about 2 watts/cm^2 cure speed was shortened to 5 seconds for the same depth.
An acrylate mixture was composed of 60% urethane diacrylate, 30% DPHPA, 10% BDDA, and 0.05 weight % of DIEF or DIBF fluorone dye with 2 weight % of DIDMA. The formulation cure to a depth greater than 1 cm in 10 seconds when exposed to a 75 watt tungsten halogen lamp which provided an irradiance of about 260 mw/cm^2.
An acrylate mixture was composed of 33% TMPTA, 33% DPHPA, 33% Epoxy acrylate, and 2% of DIDMA with either 0.01, 0.05 or 0.1 weight % of DIEF. All samples cured to a depth greater than 1 cm in 10 seconds when exposed to a 75 watt tungsten halogen.
An acrylate mixture was composed of 70% urethane diacrylate, 5% DPHPA, 25% BDDA, and 2% DIDMA with either 0.01, 0.03 or 0.1 weight % DIEF. The 0.01 and 0.03 samples cured after 2 passes through a 300 watt per inch medium pressure mercury arc lamp at a speed of 50 feet/minute to a depth greater than 3 mm. The 0.1 sample cured to a depth of greater than 1.5 mm.

Data set [2] can be described thus: double bond conversion (C=C% Conversion) by FTIR. Particulars: DIDMA. The method, then:
To a resin formulation consisting of 15 parts urethane diacrylate, 15 parts DPHPA, 20 parts TPGDA and 40 parts TMPTA was added DIDMA, initiator and (4-octyloxyphenyl)phenyliodonium hexafluoroantimonate (OPPI). The samples were coated to a thickness of 15 microns and exposed to a 75 W tungsten halogen dental lamp (focused through an optical fiber) at a distance of 0.75 inch at which the Light intensity was about 0.40 W/cm^2. The molar ratios are indicative of the amounts of fluorone to onium salt to amine coinitiator. The double bond conversion was determined by FTIR spectroscopy. The pencil hardness of a given test sample is measured by holding a pencil at a 45° angle to the sample and drawing across it towards the person testing it. Using the pencils in an order from softest to hardest, the first pencil that scratches the surface is assigned as the pencil hardness of the sample. The pencil hardness scale is as follows from softest to hardest: 4B, 3B, 2B, B, HB, H, 2H, 3H, 4H, 6H. For instance, if a 2H pencil is the first pencil to scratch the surface then the pencil hardness is 2H.
The foregoing study was repeated using 100% butanediol diacrylate, and 100% polyethylene glycol diacrylate (MW=400)(PEGA 400).

In the case of `CCCCOc1ccc2cc3cc(I)c(=O)c(I)c-3oc2c1` [DIBF, 5,7-diiodo-3-butoxy-6-fluorone], in data set [1], the “λmax in EtOH (first value)” value is on record as 470. Further, the “ε (first value)” value in data set [1] (at first λmax, in M-1cm-1 (unit assumed)) is given as 30,200. For the same molecule, the depth of cure entry in the data set “depth of cure” (10 seconds, 75 watt tungsten halogen, about 260 mw/cm^2, 0.05 weight % dye, 2 weight % DIDMA, 60% urethane diacrylate, 30% DPHPA, 10% BDDA) was “greater than 1 cm”; in “depth of cure” (30 seconds, 350 watt tungsten halogen, about 500 mw/cm^2, dye 0.01, 0.05 and 0.1 weight, NPG 20 to 1), 3 cm. Moreover, in the data set “depth of cure” (about 2 watts/cm^2, NPG 20 to 1), the “cure time for the same depth (3 cm)” value stood at 5 s. For the same molecule, the “C=C% Conversion” value in data set [2] (0.05 wt %, (1:0:60), 60 sec) is 50%; in data set [2] (0.05 wt %, (1:2:3), 60 sec) it was 61%; in data set [2] (0.10 wt %, (1:2:3), 60 sec), 90%; in data set [2] (0.15 wt %, (1:2:3), 10 sec), 60%; in data set [2] (0.15 wt %, (1:2:3), 30 sec) it was 84%; in data set [2] (0.15 wt %, (1:2:3), 60 sec), 90%.
